Results published in US20110112160A1, “TABLET COMPRISING EPROSARTAN MESYLATE” (LEK PHARMACEUTICALS D.D., priority 2008, published 2011).

How the values were obtained:
[1] = Physical stability, form of eprosartan mesylate by X-ray diffraction (XRD); assay type: physicochemical; settings: at ambient temperature and humidity
Protocol: During the dry granulation processes using different excipients from the list above, physical stability of the eprosartan mesylate anhydrate was investigated. […] The final tablet form and placebo powder were analyzed by X-ray diffraction (XRD) pattern to confirm presence of anhydrous form of eprosartan mesylate.
Diffractograms were collected on X'Pert PRO MPD diffractometer using CuKα radiation. Data were recorded from 2 do 40°2θ; in steps of 0.033°2θ; with the integration times 50 s (routine testing) and from 4 do 20°2θ; in steps of 0.033°2θ; with the integration times 2000 s (to achieve lower LOD). The range for measurements with longer integration times was chosen according to the known diffractograms of eprosartan mesylate crystalline forms, which all have characteristic peaks in the carefully measured range between 4 and 20°2theta.

[2] = Hygroscopicity and interconversion of forms at high relative humidity; assay type: physicochemical; settings: at RH over 60%
Description: Eprosartan mesylate is hygroscopic (at RH over 60%).

intestinal epithelium = settings: background art; cited from earlier work
[3] = background art; cited from earlier work
[4] = at pH 2; typically; cited from earlier work
Flowability = assay type: physicochemical; settings: drug per se; with sticking on punches

physical and chemical stability [1]	flowability (Flowability)	hygroscopicity [2]	Structure (SMILES)	interconversion of form [2]	permeability across the intestinal epithelium (intestinal epithelium)	bioavailability [3] [%]	solubility [4]
physically and chemically stable			CCCCc1ncc(/C=C(\Cc2cccs2)C(=O)O)n1Cc1ccc(C(=O)O)cc1.CS(=O)(=O)O [Eprosartan mesylate in anhydrous form]	interconverts to eprosartan mesylate mono- and later to dihydrate			
	below 0.15 g/sec	hygroscopic	CCCCc1ncc(/C=C(\Cc2cccs2)C(=O)O)n1Cc1ccc(C(=O)O)cc1.CS(=O)(=O)O [eprosartan mesylate, (E)-α-[2-n-butyl-1-[(4-carboxyphenyl)methyl]-1H-imidazol-5-yl]methylene-2-thiophenepropionic acid monomethanesulfonate]		low permeability	13	less than 0.1 mg/ml
